# Assay results: US10335380B2, “Compounds suitable for the treatment of myeloproliferative neoplasms as well as methods for the diagnosis/prognosis of myeloproliferative neoplasms” (CNIC Fundacion Centro Nacional De investigaciones …, priority 2013, dated 2019)
# Entries after “also recorded” stand apart in the source; their conditions may differ.
# Tests used:
# [1] = system: WT mice transplanted with control BM cells; experiment: In vivo treatment of WT mice transplanted with control BM cells (normal haematopoiesis); set-up: species or system mouse
# Procedure: Age-matched, female wild-type C57BL/6J or Nes-gfp mice were used as recipients in bone marrow (BM) transplantation assays and for in vivo pharmacological treatments. Lethally irradiated (12 Gy) recipient mice were transplanted with 2×10^6 BM cells from Mx-Cre;JAK2V617F mice induced with plpC 8 weeks before, or from Cre-negative mice as disease-free controls. […] Vehicle (saline solution) daily injections were performed in the same way. Unless indicated, treatment was initiated 4 weeks posttransplant, when animals evidenced peripheral blood signs of MPN. Mice were randomly distributed prior to treatment initiation, and disease development was monitored over time in peripheral blood samples, using an automated blood counter. […] Mice were sacrificed at different time points and subjected to complete necropsy; BM and spleen were analysed by histology and flow cytometry; femora and skull were used for immunostainings, and haematopoietic and stromal cells were additionally used for functional assays ex vivo.
# BM cell extraction, flow cytometry and fluorescence-activated cell sorting For haematopoietic cell recovery, bones were crushed in a mortar, filtered through a 40-μm mesh to obtain single cell suspensions, and depleted of red blood cells by lysis in 0.15 M NH4Cl for 10 min at 4° C. […] Biotinylated antibodies were detected with fluorochrome-conjugated streptavidin (BD Biosciences). […]
# [2] = system: CD45+ haematopoietic cells from BM of Nes-gfp;Mx1-cre;JAK2-V617F mice and control littermates; experiment: Colony-forming units in culture (CFU-C) with drug added in vitro; assay type: cell-based, mouse; settings: scored after one week in culture
# Procedure: Colony-forming units in culture (CFU-C) assay was performed. […] Colonies of more than 50 cells were scored after 7 days of incubation at 37° C., 5% CO2, 20% O2 in a water-jacketed incubator. For CFU-F assays, BM CD45− Ter119− cells were plated into 6-well dishes and cultured in maintenance medium (α-MEM, 15% FCS with antibiotics). After 10-12 days in culture, adherent cells were fixed with 100% methanol and stained with Giemsa stain (Sigma) to reveal fibroblastic clusters. Colonies with more than 50 cells were scored as CFU-F.
# [3] = system: HSCs and MPN-initiating cells; experiment: Competitive repopulation assays using limiting cell dilutions; assay type: in vivo
# Procedure: For quantification of HSC, BM cells from treated mice were used for competitive repopulation assays using limiting cell dilutions. Briefly, CD45.1+ competitor BM cells […] were transplanted into lethally irradiated CD45.2+ recipient mice, after mix with […] and 4×10^3 donor BM cells. Peripheral blood chimerism was assessed by flow cytometry every 2-4 weeks. Mice were sacrificed 16 weeks after the transplant and the BM LSK cell chimerism was assessed by flow cytometry. A minimum of 5% CD45.2+ chimerism in the LSK cell compartment was considered as positive in recipients of control BM cells. In recipients of mutant BM, mice were considered as positive (“leukaemic”) above 50% CD45.2+ chimerism. The software LCalc (StemCell Technologies) was used for quantification of HSCs and MPN-initiating cells in control and mutant donor BM, respectively.
# [4] = system: Nes-creERT2;iDTA mice depleted in nestin+ cells; experiment: BRL37344 treatment of Nes-creERT2;iDTA mice depleted in nestin+ cells, transplanted with MPN BM cells; assay type: in vivo, mouse; settings: BRL37344 for 6 weeks
# Procedure: Age-matched, female wild-type C57BL/6J or Nes-gfp mice were used as recipients in bone marrow (BM) transplantation assays and for in vivo pharmacological treatments. […] Vehicle (saline solution) daily injections were performed in the same way. Unless indicated, treatment was initiated 4 weeks posttransplant, when animals evidenced peripheral blood signs of MPN. Mice were randomly distributed prior to treatment initiation, and disease development was monitored over time in peripheral blood samples, using an automated blood counter. […] The neuroprotective drug 4-methylcatechol (10 μg kg-1, i.p.) was injected once daily. The JAK inhibitor INCB018424 (S-Ruxilitinib, Abmole Bioscience) was administered by oral gavage (30 mg kg-1, twice per day separated 10-12 hours) in 0.5% hydroxypropylmethylcellulose (Sigma) after solubilisation in DMSO. The IL-1 receptor antagonist (Kineret, Sobi, Stockholm, Sweden) was administered by subcutaneous osmotic pumps (Alzet) infusing a continuous dosing of 40 mg kg-1 per day. Mice were sacrificed at different time points and subjected to complete necropsy; BM and spleen were analysed by histology and flow cytometry; femora and skull were used for immunostainings, and haematopoietic and stromal cells were additionally used for functional assays ex vivo.
# β2 receptors = β2 receptors (Homo sapiens, UniProt P07550); settings: read-out: Ki for β2 receptors; cited from earlier work
# Sequence of β2 receptors (P07550 whole entry): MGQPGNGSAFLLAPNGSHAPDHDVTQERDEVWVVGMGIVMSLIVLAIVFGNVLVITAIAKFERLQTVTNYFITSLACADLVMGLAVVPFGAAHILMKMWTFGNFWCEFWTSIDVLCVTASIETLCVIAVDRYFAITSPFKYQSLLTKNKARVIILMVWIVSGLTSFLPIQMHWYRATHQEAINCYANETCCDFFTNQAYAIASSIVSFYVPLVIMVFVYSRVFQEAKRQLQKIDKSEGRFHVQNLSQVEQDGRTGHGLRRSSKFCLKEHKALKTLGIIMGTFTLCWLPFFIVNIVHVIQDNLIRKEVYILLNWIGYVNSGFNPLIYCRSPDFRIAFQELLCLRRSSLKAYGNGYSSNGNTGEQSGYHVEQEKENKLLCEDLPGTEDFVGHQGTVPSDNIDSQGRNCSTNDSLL
smiles,measurement,setting,value
"C[C@H](Cc1ccc(OCC(=O)O)cc1)NC[C@H](O)c1cccc(Cl)c1 [BRL37344, [4-[(2R)-2-[[(2R)-2-(3-clorophenyl)-2-hydroxyethyl]amino]propyl]phenoxy]acetic acid]",blood counts in wild-type mice,[1]; BRL37344 2 mg kg-1 i.p. twice a day,did not affect
same,normal HSCs / normal haematopoiesis,"[1]; long-term BRL37344 treatment, 16 weeks, 2 mg kg-1 twice a day i.p.",did not compromise; also recorded: does not compromise
same,growth of cultured haematopoietic progenitors (CFU-C),[2],neither 4-methylcatechol nor BRL37344 affected
same,reduction in leukemic stem cells (MPN-initiating cell frequency),"[3]; BM cells from BRL37344-treated versus vehicle-treated MPN mice, 16 weeks after transplantation",4.5 fold
same,normal HSC BM number,"[3]; control mice treated with BRL37344 over 4 weeks, starting 11 weeks after the transplant, non-significant",does not change
same,therapeutic effect of BRL37344 after in vivo depletion of nestin+ cells (blood counts),[4]; Nes-creERT2;iDTA versus control mice,reduces
same,leukocytosis in mice depleted in nestin+ cells,[4]; started 2 weeks after transplantation combined with tamoxifen,not rescued
same,Ki,β2 receptors,1.12 µM
